Measurements reported in patent US12630500B2, “Hexasubstituted radialene compounds and applications thereof” (THE UNIVERSITY OF NORTH CAROLINA AT CHARLOTTE, priority 2019, dated 2026).

How the values were obtained:
[1] = reported catholytes for neutral aqueous RFBs; cited from earlier work
[2] = Cyclic voltammetry in water (GC working electrode, Ag/AgCl reference); type: physicochemical; details: Randles-Sevcik equation, scan rates 0-700 mV/s
[3] = type: physicochemical
Description: (§1) Hexacyano[3] radialene was initially used as a model system to probe the efficacy of hexasubstituted radialenes as redox couples in pH 7 aqueous solutions. A prerequisite for a practical aqueous catholyte is a high oxidation potential that occurs within the electrochemical window of water. The electrochemistry of [C6(CN)6]^2− as a tetrabutylammonium (TBA) salt in organic solvents only. […] Using cyclic voltammetry (CV), it was first established that the one electron oxidation of the dianion to the radical anion occurs at a potential favorable for use as a catholyte for RFBs, 480 mV.
(§2) This value was almost identical to the diffusion coefficients of hydrophilic ferrocene derivatives in neutral pH solutions of NaCl. […] Such chemical stability is essential for durable RFB electrolytes.
Diester compound 3 was selected for further analysis due to its favorable solubility in both redox states and its adequate oxidation potential in water. Electrochemical studies of compound 3 were performed to gauge its stability and galvanostatic cycling performance in aqueous solution. […] This assuages concerns of the possibility of ester hydrolysis. Next, a symmetrical H-cell with a cation-exchange membrane separator was used for aqueous galvanostatic charge-discharge experiments (FIG. 4B). The compound 3 undergoes steady cycling over a period of 12 days (50 cycles). […] The higher relative capacity retention was ascribed to the asymmetry and non-planarity of the diester congener, which helps limit dimerization interactions.

[4] = Conductivity of aqueous solutions; type: physicochemical; details: for Conductivity: first value of the pair; for Conductivity (value in parentheses): not defined in the patent
[5] = Cyclic voltammetry in water (GC working electrode, Ag/AgCl reference); type: physicochemical; details: for E^ox1/2 / ipc/ipa: in water
Description: FIG. 2A provides cyclic voltammograms of a hexasubstituted radialene dianion ([…]) using a glassy carbon (GC) working electrode, platinum auxiliary electrode, and Ag/AgCl reference electrode measured at various scan rates (10-700 mV/s) in water.
as §1, §2

[6] = Stability in air and thermal stability; type: physicochemical
Description: Hexacyano[3] radialene (Na2C6(CN)6), compound 1 in FIG. 3, was synthesized at low temperatures, on a large scale, and in high yield (for example 45 g, 91%). This convenient synthesis uses inexpensive precursors (tetrachlorcyclopropene (TCCP) and malononitrile), reagents (sodium hydride), and solvent (glyme). […] Furthermore, this compound is stable in air, and can be sequentially oxidized in two single-electron transfers. The product of the first oxidation, radical anion the compound ·- is particularly persistent. […] Remarkably, the radical anion is thermally stable to above 180° C. The inherent stability of the compound and persistence of the radical anion ·- signifies that the redox couple is favorable for use in a RFB, a device in which long lifespan is required. Finally, aqueous solutions of the dianion are colorless, while the radical anion produces a deep blue color when dissolved. This is advantageous for visually following the charge-discharge characteristics of proposed RFBs.

[7] = Aqueous solubility by UV/Vis spectroscopy; type: physicochemical; details: for Solubility / Radical Anion Solubility: aqueous; for Solubility: dianionic state (disodium salt); for Radical Anion Solubility: radical anionic state
Protocol: One nitrile group was systematically substituted at a time in an effort to preserve the favorable oxidation potential of the redox couple. To this end, a series of asymmetric, ester-substituted, [3] radialene species (FIG. 3, Compounds 1-4) were prepared via the zwitterionic synthetic method. The aqueous solubilities of these compounds in both the dianionic and radical anionic states were determined using UV/Vis spectroscopy (Table 1).

SMILES	oxidation potential [1] [mV]	diffusion coefficient for the electron transfer process [2]	stability in aqueous solutions ([3]; pH 7)	change in peak current height on standing ([3]; solutions of dianion and radical anion left five days)	Conductivity [4] [mS/cm]	Conductivity (value in parentheses) [4]	potential of one electron oxidation of dianion to radical anion ([5]; cyclic voltammetry, aqueous pH 7) [mV]	E^ox1/2 [5] [V]	ipc/ipa [5]	stability in air ([6]; dianion compound)	thermal stability of radical anion ([6]; radical anion)	storage of radical anion in air ([6]; radical anion, isolated via chemical oxidation)	Solubility [7] [mM]	Radical Anion Solubility [7] [mM]	solubility in water ([7]; dianion) [mM]	stability of dianion in water [3]	conductivity of aqueous solutions without supporting electrolyte ([4]; 0.1 M, without NaCl)	solubility in water ([7]; disodium salt) [mM]
CC1(C)CC(O)CC(C)(C)N1[O] [4-hydroxy-TEMPO]	610																	
N#CC(C#N)=C1C([C-](C#N)C#N)=C1[C-](C#N)C#N.[Na+].[Na+] [Compound 1, Hexacyano[3] radialene (Na2C6(CN)6)]		3.71×10^−6 cm^2/s	stable	no significant changes in peak current height	13.2	(0.147) mS/cm	480	0.48	1.03	stable in air	above 180 °C	stored in air indefinitely	<100	<25	25			
COC(=O)C(C#N)=C1C([C-](C#N)C#N)=C1[C-](C#N)C#N.[Na+].[Na+] [Compound 2]					15.7	(2.36) mS/cm		0.4	0.97				190	80				
COC(=O)[C-](C#N)C1=C([C-](C#N)C(=O)OC)C1=C(C#N)C#N.[Na+].[Na+] (stereo not drawn) [Compound 3, diester-tetracyano [3] radialene dianion]					36.7	(23.2) mS/cm		0.35	1.06				450	170		stable in water	sufficiently conductive	850
COC(=O)C(C#N)=C1C([C-](C#N)C(=O)OC)=C1[C-](C#N)C(=O)OC.[Na+].[Na+] (stereo not drawn) [Compound 4]					39	(0.23) mS/cm		0.27	1.15				820	<25				
